Earlier results in patent US9393184B2, “Oxychlorine oral rinse composition having enhanced oral-tissue compatibility for the destruction of malodorants, their putrefactive microbial sources and gum-disease pathogens and a method for the preparation thereof” (ProFresh Properties Inc., priority 2013, dated 2016).

Q: With O=C(O)O [carbonic acid] as the molecule, how does the pKa read?
A: 6.1
